{"source": "patent US7582618B2", "about": "(priority 2002, dated 2009)", "key": {"[1]": {"assay": "Cytotoxicity (cell proliferation) assay", "conditions": "bovine, MDBK kidney cells"}, "CVB-3": {"tested_on": "CVB-3", "assay": "microbe, parasite or virus in culture", "type": "cell-based, Coxsackievirus B-3", "conditions": "Coxsackievirus, read-out: EC50 CVB-3"}, "DENV-4 in BHK cells": {"tested_on": "DENV-4 in BHK cells", "assay": "Cell protection assay", "type": "cell-based", "conditions": "Dengue virus, DENV4, DENV-4, BHK"}, "Cytotoxicity assay": {"assay": "Cytotoxicity assay", "conditions": "human"}, "WNV (Vero)": {"tested_on": "WNV (Vero)", "assay": "microbe, parasite or virus in culture", "type": "cell-based", "conditions": "West Nile virus"}, "YFV (Vero)": {"tested_on": "YFV (Vero)", "assay": "microbe, parasite or virus in culture", "type": "cell-based", "conditions": "Yellow fever virus"}, "[2]": {"tested_on": "different strains of BVDV", "assay": "BVDV cell protection, plaque reduction and yield reduction assays, summary over strains", "type": "cell-based", "conditions": "Bovine viral diarrhea virus isolates and strains, all three assays"}, "Cytotoxicity (Table 10) [3]": {"assay": "Cytotoxicity (Table 10)", "conditions": "dog, MDCK cells"}, "[4]": {"assay": "Clinical pharmacokinetics of mCyd after oral val-mCyd", "conditions": "human, plasma, mCyd in plasma; for AUC(0-inf): AUC0-inf (Mean); for Cmax: Cmax (Mean); for Tmax: Tmax (Mean); for half-life: t1/2 (Mean)"}, "[5]": {"tested_on": "BVDV NADL cp in MDBK cells", "assay": "Plaque reduction assay", "type": "cell-based", "conditions": "Bovine viral diarrhea virus isolates and strains", "description": "For each compound the effective concentration was determined in duplicate 24-well plates by plaque reduction assays. Cell monolayers were infected with 100 PFU/well of virus. Then, serial dilutions of test compounds in MEM supplemented with 2% inactivated serum and 0.75% of methyl cellulose were added to the monolayers. Cultures were further incubated at 37° C. for 3 days, then fixed with 50% ethanol and 0.8% Crystal Violet, washed and air-dried. Then plaques were counted to determine the concentration to obtain 90% virus suppression."}, "Sb-1": {"tested_on": "Sb-1", "assay": "microbe, parasite or virus in culture", "type": "cell-based, poliovirus Sabin type-1", "conditions": "Enterovirus C"}, "Cytotoxicity (Table 10) [6]": {"assay": "Cytotoxicity (Table 10)", "conditions": "human, KB cells"}, "[7]": {"assay": "Cytotoxicity on uninfected cells in parallel to the CPA", "conditions": "bovine, uninfected MDBK kidney cells"}, "[8]": {"tested_on": "Parainfluenzatype 3 (MA-104)", "assay": "organism not typed", "type": "cell-based", "conditions": "MA104"}, "[9]": {"assay": "Cellular DNA or RNA synthesis ([3H]-thymidine / [3H]-uridine incorporation)", "conditions": "human, HepG2 cells"}, "YFV": {"tested_on": "YFV", "assay": "microbe, parasite or virus in culture", "type": "cell-based", "conditions": "Yellow fever virus, read-out: YFV (Table 8b)"}, "[10]": {"tested_on": "BVDV I-N-dlns ncp in MDBK cells", "assay": "microbe, parasite or virus in culture", "type": "cell-based", "conditions": "Bovine viral diarrhea virus isolates and strains, read-out: Antiviral Efficacy EC90"}, "MCMV (MEF)": {"tested_on": "MCMV (MEF)", "assay": "organism not typed", "type": "cell-based"}, "CVB-4": {"tested_on": "CVB-4", "assay": "microbe, parasite or virus in culture", "type": "cell-based, Coxsackievirus B-4", "conditions": "Coxsackievirus, read-out: EC50 CVB-4"}, "[11]": {"assay": "Cytotoxicity (cell proliferation) assay", "conditions": "rat, H9c2 myocardial cells"}, "Cytotoxicity (Table 10) [12]": {"assay": "Cytotoxicity (Table 10)", "conditions": "human, HeLa-Ohio cells"}, "HepG2 cells": {"tested_on": "HepG2 cells", "assay": "Mitochondria toxicity assay, lactic acid production"}, "[13]": {"assay": "In vitro stability in human plasma", "conditions": "human plasma or crude human cytidine/deoxycytidine deaminase preparation, 37° C."}, "REO-1": {"tested_on": "REO-1", "assay": "Antiviral test (Tables 8b, 8c)", "type": "cell-based, double-stranded RNA viruses"}, "Yellow Fever virus": {"tested_on": "Yellow Fever virus", "assay": "microbe, parasite or virus in culture", "type": "cell-based", "conditions": "read-out: composite EC50 range, Yellow Fever virus"}, "[14]": {"assay": "Cytotoxicity testing by NIH program", "conditions": "human and other mammalian"}, "[15]": {"conditions": "50 mg, val-mCyd 50 mg PO, Day 1"}, "[16]": {"conditions": "50 mg, val-mCyd 50 mg PO, Day 15"}, "[17]": {"conditions": "100 mg, val-mCyd 100 mg PO, Day 1"}, "[18]": {"conditions": "100 mg, val-mCyd 100 mg PO, Day 15"}}, "note": "Values joined by “and” are separate entries in the source; they are usually repeats but may differ in a detail not shown here. Identical values can stand only once. Like-named read-outs stand apart in the source and are kept apart here."}
{"smiles": "CC1(O)C(O)C(CO)OC1n1ccc(N)nc1=O", "note": "(stereo not shown) [mCyd, 4-Amino-1-(3,4-dihydroxy-5-hydroxymethyl-3-methyl-tetrahydro-furan-2-yl)-1H-pyrimidine-2-one]", "values": [{"measurement": "CC50 at 4 days", "setting": "[1]", "result": 36, "unit": "µM"}, {"measurement": "EC50", "setting": "CVB-3", "result": 9, "unit": "µM"}, {"measurement": "EC50", "setting": "DENV-4 in BHK cells", "result": 59, "unit": "µM"}, {"measurement": "CC50", "setting": "Cytotoxicity assay; CC50, HFF, HCMV row", "result": "67 to 73", "unit": "µg/mL"}, {"measurement": "CC50", "setting": "Cytotoxicity assay; CC50, HFF, HSV-1 row", "result": "> 100", "unit": "µg/mL"}, {"measurement": "CC50", "setting": "Cytotoxicity assay; CC50, HFF, HSV-2 row", "result": "> 100", "unit": "µg/mL"}, {"measurement": "CC50", "setting": "Cytotoxicity assay; CC50, HFF, VZV row", "result": 67.8, "unit": "µg/mL"}, {"measurement": "CC50", "setting": "Cytotoxicity assay; CC50, rapidly proliferating HFF", "result": 16.9, "unit": "µM"}, {"measurement": "EC50", "setting": "WNV (Vero)", "result": 46, "unit": "µM"}, {"measurement": "EC50", "setting": "YFV (Vero)", "result": "9 to 30", "unit": "µM"}, {"measurement": "EC50", "setting": "[2]; read-out: range of EC50 values against BVDV", "result": "0.3 to 2.8", "unit": "µM"}, {"measurement": "EC90", "setting": "[2]; read-out: range of EC90 values against BVDV", "result": "0.87 to 4.8", "unit": "µM"}, {"measurement": "CC50", "setting": "Cytotoxicity (Table 10) [3]; Influenza A/H1N1 row", "result": "> 200", "unit": "µM"}, {"measurement": "CC50", "setting": "Cytotoxicity (Table 10) [3]; Influenza A/H3N2 row", "result": "45 to 65", "unit": "µM"}, {"measurement": "CC50", "setting": "Cytotoxicity (Table 10) [3]; Influenza B row", "result": "55 to 140", "unit": "µM"}, {"measurement": "AUC(0-inf)", "setting": "[4]; [15]", "result": 3120, "unit": "ng·h/mL"}, {"measurement": "AUC(0-inf)", "setting": "[4]; [16]", "result": 3170, "unit": "ng·h/mL"}, {"measurement": "Cmax", "setting": "[4]; [15]", "result": 428, "unit": "ng/mL"}, {"measurement": "Cmax", "setting": "[4]; [16]", "result": 363, "unit": "ng/mL"}, {"measurement": "Tmax", "setting": "[4]; [15]", "result": 2.5, "unit": "h"}, {"measurement": "Tmax", "setting": "[4]; [16]", "result": 2.2, "unit": "h"}, {"measurement": "half-life", "setting": "[4]; [15]", "result": 4.1, "unit": "h"}, {"measurement": "half-life", "setting": "[4]; [16]", "result": 4.6, "unit": "h"}, {"measurement": "AUC(0-inf)", "setting": "[4]; [17]", "result": 6900, "unit": "ng·h/mL"}, {"measurement": "AUC(0-inf)", "setting": "[4]; [18]", "result": 7670, "unit": "ng·h/mL"}, {"measurement": "Cmax", "setting": "[4]; [17]", "result": 982, "unit": "ng/mL"}, {"measurement": "Cmax", "setting": "[4]; [18]", "result": 1050, "unit": "ng/mL"}, {"measurement": "Tmax", "setting": "[4]; [17]", "result": 2.6, "unit": "h"}, {"measurement": "Tmax", "setting": "[4]; [18]", "result": 2, "unit": "h"}, {"measurement": "half-life", "setting": "[4]; [17]", "result": 4.4, "unit": "h"}, {"measurement": "half-life", "setting": "[4]; [18]", "result": 4.2, "unit": "h"}, {"measurement": "EC50", "setting": "[5]", "result": "2.57 ± 0.35", "unit": "µM"}, {"measurement": "EC90", "setting": "[5]; read-out: Antiviral Efficacy EC90", "result": "4.63 ± 0.72", "unit": "µM"}, {"measurement": "EC50", "setting": "Sb-1; read-out: EC50 Sb-1", "result": 6, "unit": "µM"}, {"measurement": "EC50", "setting": "Sb-1; read-out: Sb-1 (Table 8b)", "result": 11.5, "unit": "µM"}, {"measurement": "CC50", "setting": "Cytotoxicity (Table 10) [6]", "result": "> 200 µM and 20 µg/mL to 30 µg/mL"}, {"measurement": "CC50 at 4 days", "setting": "[7]", "result": "38 ± 9", "unit": "µM"}, {"measurement": "EC50", "setting": "[8]", "result": "> 200", "unit": "µM"}, {"measurement": "CC50", "setting": "[9]; probe [3H]-thymidine, CC50 DNA ([3H]Thymidine), 50% reduction of thymidine incorporation into cellular DNA", "result": 112, "unit": "µM"}, {"measurement": "CC50", "setting": "[9]; probe [3H]-uridine, CC50 RNA ([3H]Uridine), 50% reduction of uridine incorporation into cellular RNA", "result": 186, "unit": "µM"}, {"measurement": "EC50", "setting": "YFV", "result": 54, "unit": "µM"}, {"measurement": "EC90", "setting": "[10]", "result": 1.49, "unit": "µM"}, {"measurement": "EC50", "setting": "MCMV (MEF)", "result": "> 0.8", "unit": "µM"}, {"measurement": "EC50", "setting": "CVB-4", "result": 13, "unit": "µM"}, {"measurement": "CC50 at 4 days", "setting": "[11]", "result": "> 250", "unit": "µM"}, {"measurement": "CC50", "setting": "Cytotoxicity (Table 10) [12]", "result": "≥ 20", "unit": "µg/mL"}, {"measurement": "L-Lactate (% of Control), HepG2 Cells", "setting": "HepG2 cells; 50 μM, 4 days", "result": "138.0 ± 8.9 % of Control"}, {"measurement": "increase in lactic acid production", "setting": "HepG2 cells; HepG2, 50 μM", "result": 38, "unit": "%"}, {"measurement": "in vitro stability / deamination to mUrd", "setting": "[13]", "result": "remained essentially unchanged"}, {"measurement": "EC50", "setting": "REO-1", "result": 13, "unit": "µM"}, {"measurement": "EC50", "setting": "Yellow Fever virus", "result": "9 to 80", "unit": "µM"}, {"measurement": "CC50", "setting": "[14]", "result": "> 50", "unit": "µM"}]}
